Values of other authors as cited in patent US20210236583A1, “Targeting the renin-angiotensin system for treatment of environment-and pathogen-induced lung injury” (priority 2020, published 2021).

System: mice
Settings: direct injection of recombinant ACE2 protein

## recombinant ACE2 protein: recombinant ACE2 protein injected directly, from the literature (Imai et al., 2005)
  protection from severe acute lung injury: protect mice from severe acute lung injury
